Results from ChEMBL document CHEMBL1817639, “Refinement of arylthiosemicarbazone pharmacophore in inhibition of mushroom tyrosinase” (Eur J Med Chem, 2011).

molecular target: T1, Tyrosinase (Agaricus bisporus) (UniProt O42713); assay: Ratio IC50 for Kojic acid to compound for diphenolase activity of mushroom tyrosinase
T1 sequence (whole entry): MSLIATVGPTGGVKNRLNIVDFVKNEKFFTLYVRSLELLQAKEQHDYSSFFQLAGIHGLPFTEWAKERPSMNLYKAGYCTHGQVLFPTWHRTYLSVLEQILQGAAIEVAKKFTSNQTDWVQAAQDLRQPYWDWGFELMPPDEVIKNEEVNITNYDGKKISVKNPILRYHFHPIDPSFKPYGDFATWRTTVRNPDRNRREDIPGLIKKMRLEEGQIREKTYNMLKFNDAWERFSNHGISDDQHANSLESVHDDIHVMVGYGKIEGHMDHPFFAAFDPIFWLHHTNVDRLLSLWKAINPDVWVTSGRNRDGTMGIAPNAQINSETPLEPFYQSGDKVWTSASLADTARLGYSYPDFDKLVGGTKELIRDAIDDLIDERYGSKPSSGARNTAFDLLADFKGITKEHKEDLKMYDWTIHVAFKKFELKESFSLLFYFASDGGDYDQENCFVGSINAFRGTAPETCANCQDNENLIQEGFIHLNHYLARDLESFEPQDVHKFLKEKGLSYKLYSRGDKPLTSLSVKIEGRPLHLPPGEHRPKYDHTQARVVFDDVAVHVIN

| Ratio IC50 | SMILES |
| --- | --- |
| 9 | NC(=S)N/N=C/c1cc(=O)c(O)co1 |

test system: not listed separately; assay: Dissociation constant, pKa of the compound; assay type: physicochemical

| pKa | SMILES |
| --- | --- |
| 5 | N/C(S)=N/N=C/c1ccccn1 |
| 0.5 | NC(=S)N/N=C/c1ccc[nH]1 |
| 0.5 | NC(=S)N/N=C/c1ccco1 |

molecular target: T2, Tyrosinase (Agaricus bisporus, UniProt O42713)
T2 sequence (O42713 whole entry): T1 sequence (whole entry)
Description: Inhibition of diphenolase activity of mushroom tyrosinase using L-DOPA as substrate preincubated for 5 mins by spectroscopic method

| IC50 | SMILES |
| --- | --- |
| 45 µM | N/C(S)=N/N=C/c1ccccn1 |
| 600 µM | NC(=S)N/N=C/c1c[nH]c2ccccc12 |
| 8 µM | NC(=S)N/N=C/c1ccc[nH]1 |
| > 2000 µM | Cc1[nH]c2ccccc2c1/C=N/NC(N)=S |
| 1700 µM | Cn1c(/C=N/N=C(/N)S)cc2ccccc21 |
| 11 µM | NC(=S)N/N=C/c1ccc(F)cc1 |
| 6 µM | NC(=S)N/N=C/c1ccco1 |
| > 2000 µM | COc1coc(/C=N/NC(N)=S)cc1=O |
| 32 µM | NC(=S)N/N=C/c1ccccc1F |
| 7 µM | NC(=S)N/N=C/Cc1ccccc1 |
| > 2000 µM | NC(=S)N/N=C/c1ccc2[nH]ccc2c1 |
| 9 µM | NC(=S)N/N=C/c1cccc(F)c1 |
| 402 µM | NC(=S)N/N=C/c1cc2ccccc2[nH]1 |
| 12 µM | NC(=S)N/N=C/c1cccc2ccccc12 |
| 70 µM | NC(=S)N/N=C/c1ccc2ccccc2n1 |
| 400 µM | NC(=S)N/N=C/CCc1ccccc1 |
| 1100 µM | NC(=S)N/N=C/c1ccc2ccccc2c1 |
| 11 µM | NC(=S)N/N=C/c1cc(=O)c(O)co1 |
| > 2000 µM | Cn1ccc2cc(/C=N/NC(N)=S)ccc21 |
| > 2000 µM | Cn1cc(/C=N/NC(N)=S)c2ccccc21 |
